Laboratory results from ChEMBL document CHEMBL3627682, “Exploration of the structure-activity relationship of 1,2,4-oxadiazole antibiotics” (2015).
Values after ≈ are worked out from the molar mass of the structure shown. Each block holds one compound with its values, some of them ahead of it.

What was measured:
Format in all cases: functional
Staphylococcus aureus [1] = test: Antibacterial activity against Staphylococcus aureus ATCC 29213
Staphylococcus aureus [2] = test: Antibacterial activity against methicillin, oxacillin, and tetracycline-resistant and vancomycin and linezolid-susceptible Staphylococcus aureus ATCC 27660 expressing mecA
Bacillus licheniformis = test: Antibacterial activity against Bacillus licheniformis ATCC 12759
Enterococcus faecalis [3] = test: Antibacterial activity against Enterococcus faecalis 201
[4] = system: Staphylococcus epidermidis; test: Antibacterial activity against Staphylococcus epidermidis ATCC 35547
Bacillus cereus = test: Antibacterial activity against Bacillus cereus ATCC 13061
Staphylococcus aureus [5] = test: Antibacterial activity against ciprofloxacin, gentamicin, oxacillin, penicillin, and linezolid-resistant Staphylococcus aureus NRS119 expressing mecA
Staphylococcus aureus [6] = test: Antibacterial activity against ciprofloxacin, gentamicin, oxacillin, penicillin, and linezolid-resistant Staphylococcus aureus NRS120 expressing mecA
Enterococcus faecalis [7] = test: Antibacterial activity against Enterococcus faecalis ATCC 29212
[8] = system: Staphylococcus haemolyticus; test: Antibacterial activity against Staphylococcus haemolyticus ATCC 29970
Enterococcus faecalis [9] = test: Antibacterial activity against vancomycin-resistant Enterococcus faecalis 99
Staphylococcus aureus [10] = test: Antibacterial activity against vancomycin-resistant Staphylococcus aureus VRS1
Enterococcus faecium [11] = test: Antibacterial activity against vancomycin-resistant Enterococcus faecium 106
Staphylococcus aureus [12] = test: Antibacterial activity against methicillin, oxacillin, and tetracycline-resistant and vancomycin and linezolid-susceptible Staphylococcus aureus NRS100 COL expressing mecA
Enterococcus faecium [13] = test: Antibacterial activity against Vancomycin-susceptible Enterococcus faecium 119-39A
Enterococcus faecium [14] = test: Antibacterial activity against vancomycin-resistant Enterococcus faecium C68
Staphylococcus aureus [15] = test: Antibacterial activity against vancomycin-resistant Staphylococcus aureus VRS2

SMILES: Oc1ccc(-c2nc(-c3ccc(N4CCNCC4)cc3)no2)cc1
MIC (Staphylococcus aureus [1]): 32 µg/mL (≈ 99.3 µM)

SMILES: Clc1cc(Cl)cc(N2CCN(c3noc(-c4n[nH]cc4Cl)n3)CC2)c1
MIC (Staphylococcus aureus [1]): ≥ 128 µg/mL

SMILES: Oc1ccc(-c2nc(-c3ccc(N4CCOCC4)cc3)no2)cc1
MIC (Staphylococcus aureus [1]): ≥ 128 µg/mL

SMILES: c1cc2cc(-c3nc(-c4ccc5c(c4)OCO5)no3)ccc2[nH]1
MIC (Staphylococcus aureus [1]): ≥ 128 µg/mL

SMILES: [N-]=[N+]=Nc1cc(-c2noc(-c3ccc(O)cc3)n2)ccc1Oc1ccc(C(F)(F)F)cc1
MIC (Staphylococcus aureus [2]): 4 µg/mL (≈ 9.1 µM) | MIC (Staphylococcus aureus [1]): 2 µg/mL (≈ 4.55 µM) | MIC (Bacillus licheniformis): 4 µg/mL (≈ 9.1 µM) | MIC (Enterococcus faecalis [3]): 4 µg/mL (≈ 9.1 µM) | MIC [4]: 2 µg/mL (≈ 4.55 µM) | MIC (Bacillus cereus): 4 µg/mL (≈ 9.1 µM) | MIC (Staphylococcus aureus [5]): 4 µg/mL (≈ 9.1 µM) | MIC (Staphylococcus aureus [6]): 4 µg/mL (≈ 9.1 µM) | MIC (Enterococcus faecalis [7]): 2 µg/mL (≈ 4.55 µM) | MIC [8]: 2 µg/mL (≈ 4.55 µM) | MIC (Enterococcus faecalis [9]): 4 µg/mL (≈ 9.1 µM) | MIC (Staphylococcus aureus [10]): 2 µg/mL (≈ 4.55 µM) | MIC (Enterococcus faecium [11]): 4 µg/mL (≈ 9.1 µM) | MIC (Staphylococcus aureus [12]): 4 µg/mL (≈ 9.1 µM) | MIC (Enterococcus faecium [13]): 4 µg/mL (≈ 9.1 µM) | MIC (Enterococcus faecium [14]): 4 µg/mL (≈ 9.1 µM) | MIC (Staphylococcus aureus [15]): 2 µg/mL (≈ 4.55 µM)

SMILES: Cl.Oc1ccc(-c2nc(-c3ccc(N4CCCCC4)cc3)no2)cc1
MIC (Staphylococcus aureus [1]): 8 µg/mL

SMILES: Clc1c[nH]nc1-c1nc(N2CCN(c3ccccc3)CC2)no1
MIC (Staphylococcus aureus [1]): ≥ 128 µg/mL

SMILES: Oc1ccc(-c2nc(-c3ccc(Oc4ccc(C(F)(F)F)cc4)c(O)c3)no2)cc1
MIC (Staphylococcus aureus [2]): 16 µg/mL (≈ 38.6 µM) | MIC (Staphylococcus aureus [1]): 2 µg/mL (≈ 4.83 µM) | MIC (Bacillus licheniformis): 16 µg/mL (≈ 38.6 µM) | MIC (Enterococcus faecalis [3]): 8 µg/mL (≈ 19.3 µM) | MIC [4]: 16 µg/mL (≈ 38.6 µM) | MIC (Bacillus cereus): 8 µg/mL (≈ 19.3 µM) | MIC (Staphylococcus aureus [5]): 8 µg/mL (≈ 19.3 µM) | MIC (Staphylococcus aureus [6]): 8 µg/mL (≈ 19.3 µM) | MIC (Enterococcus faecalis [7]): 8 µg/mL (≈ 19.3 µM) | MIC [8]: 8 µg/mL (≈ 19.3 µM) | MIC (Enterococcus faecalis [9]): 16 µg/mL (≈ 38.6 µM) | MIC (Staphylococcus aureus [10]): 8 µg/mL (≈ 19.3 µM) | MIC (Enterococcus faecium [11]): 8 µg/mL (≈ 19.3 µM) | MIC (Staphylococcus aureus [12]): 16 µg/mL (≈ 38.6 µM) | MIC (Enterococcus faecium [13]): 8 µg/mL (≈ 19.3 µM) | MIC (Enterococcus faecium [14]): 8 µg/mL (≈ 19.3 µM) | MIC (Staphylococcus aureus [15]): 8 µg/mL (≈ 19.3 µM)

SMILES: CC(C)(C)OC(=O)N1CCN(c2ccc(-c3noc(-c4n[nH]cc4Cl)n3)cc2)CC1
MIC (Staphylococcus aureus [1]): ≥ 128 µg/mL

SMILES: Cn1ccc2ccc(-c3noc(-c4n[nH]cc4Cl)n3)cc21
MIC (Staphylococcus aureus [1]): ≥ 128 µg/mL

SMILES: CN[C@H](CC(C)C)C(=O)N[C@H]1C(=O)N[C@@H](CC(N)=O)C(=O)N[C@H]2C(=O)N[C@H]3C(=O)N[C@H](C(=O)N[C@H](C(=O)O)c4cc(O)cc(O)c4-c4cc3ccc4O)[C@H](O)c3ccc(c(Cl)c3)Oc3cc2cc(c3O[C@@H]2O[C@H](CO)[C@@H](O)[C@H](O)[C@H]2O[C@H]2C[C@](C)(N)[C@H](O)[C@H](C)O2)Oc2ccc(cc2Cl)[C@H]1O [VANCOMYCIN]
MIC (Enterococcus faecalis [3]): 1 µg/mL (≈ 0.69 µM) | MIC [4]: 16 µg/mL (≈ 11 µM) | MIC (Enterococcus faecalis [7]): 2 µg/mL (≈ 1.38 µM) | MIC [8]: 2 µg/mL (≈ 1.38 µM) | MIC (Enterococcus faecalis [9]): 128 µg/mL (≈ 88.3 µM) | MIC (Staphylococcus aureus [10]): 512 µg/mL (≈ 353 µM) | MIC (Enterococcus faecium [11]): 256 µg/mL (≈ 177 µM) | MIC (Staphylococcus aureus [15]): 64 µg/mL (≈ 44.2 µM)

SMILES: c1cc2cc(-c3nc(-c4ccc5c(c4)OCC5)no3)ccc2[nH]1
MIC (Staphylococcus aureus [1]): ≥ 128 µg/mL

SMILES: Clc1c[nH]nc1-c1nc(-c2ccc(N3CCNCC3)cc2)no1
MIC (Staphylococcus aureus [1]): ≥ 128 µg/mL

SMILES: Oc1ccc(-c2nc(N3CCN(c4cccc(Cl)c4)CC3)no2)cc1
MIC (Staphylococcus aureus [1]): ≥ 128 µg/mL

SMILES: Oc1ccc(-c2nc(-c3ccc(Sc4ccc(C(F)(F)F)cc4)cc3)no2)cc1
MIC (Staphylococcus aureus [2]): 2 µg/mL (≈ 4.83 µM) | MIC (Staphylococcus aureus [1]): 2 µg/mL (≈ 4.83 µM) | MIC (Bacillus licheniformis): 1 µg/mL (≈ 2.41 µM) | MIC (Enterococcus faecalis [3]): 2 µg/mL (≈ 4.83 µM) | MIC [4]: 2 µg/mL (≈ 4.83 µM) | MIC (Bacillus cereus): 8 µg/mL (≈ 19.3 µM) | MIC (Staphylococcus aureus [5]): 2 µg/mL (≈ 4.83 µM) | MIC (Staphylococcus aureus [6]): 2 µg/mL (≈ 4.83 µM) | MIC (Enterococcus faecalis [7]): 2 µg/mL (≈ 4.83 µM) | MIC [8]: 2 µg/mL (≈ 4.83 µM) | MIC (Enterococcus faecalis [9]): 2 µg/mL (≈ 4.83 µM) | MIC (Staphylococcus aureus [10]): 2 µg/mL (≈ 4.83 µM) | MIC (Enterococcus faecium [11]): 2 µg/mL (≈ 4.83 µM) | MIC (Staphylococcus aureus [12]): 2 µg/mL (≈ 4.83 µM) | MIC (Enterococcus faecium [13]): 2 µg/mL (≈ 4.83 µM) | MIC (Enterococcus faecium [14]): 2 µg/mL (≈ 4.83 µM) | MIC (Staphylococcus aureus [15]): 2 µg/mL (≈ 4.83 µM)

Now from value to compound:

MIC (Staphylococcus aureus [1]): ≥ 128 µg/mL
SMILES: Oc1ccc(-c2nc(-c3ccc(Oc4ccc(C(F)(F)F)cc4)c(Cl)c3)no2)cc1

MIC (Staphylococcus aureus [1]): 4 µg/mL (≈ 9.02 µM)
SMILES: O=[N+]([O-])c1cc(Oc2ccc(C(F)(F)F)cc2)ccc1-c1noc(-c2ccc(O)cc2)n1

MIC (Staphylococcus aureus [1]): ≥ 128 µg/mL
SMILES: [O-][S+](c1ccccc1)c1ccc(-c2noc(-c3ccc(O)cc3)n2)cc1 (centres undefined)

MIC (Staphylococcus aureus [1]): 8 µg/mL (≈ 17.6 µM)
SMILES: C=CCOc1cc(-c2noc(-c3ccc(O)cc3)n2)ccc1Oc1ccc(C(F)(F)F)cc1

MIC (Staphylococcus aureus [1]): ≥ 256 µg/mL
SMILES: Cl.Nc1ccc(-c2noc(-c3ccc(O)cc3)n2)cc1

MIC (Staphylococcus aureus [1]): ≥ 128 µg/mL
SMILES: Oc1ccc(-c2nc(-c3ccc4[nH]c5ccccc5c4c3)no2)cc1

MIC (Staphylococcus aureus [1]): 64 µg/mL (≈ 230 µM)
SMILES: Oc1ccc(-c2nc(-c3ccc4occc4c3)no2)cc1

MIC (Staphylococcus aureus [1]): 2 µg/mL (≈ 5.77 µM)
SMILES: Oc1ccc(-c2nc(-c3ccc(Sc4ccccc4)cc3)no2)cc1

MIC (Staphylococcus aureus [1]): 4 µg/mL (≈ 7.63 µM)
SMILES: Oc1ccc(-c2nc(-c3ccc(Oc4ccc(C(F)(F)F)cc4)c(I)c3)no2)cc1

MIC (Staphylococcus aureus [1]): 8 µg/mL (≈ 18.8 µM)
SMILES: Oc1ccc(-c2nc(-c3ccc(Sc4cccc(Br)c4)cc3)no2)cc1

MIC (Staphylococcus aureus [1]): ≥ 128 µg/mL
SMILES: Oc1ccc(-c2nc(-c3ccc4c(c3)OCO4)no2)cc1

MIC (Staphylococcus aureus [1]): ≥ 500 µg/mL
SMILES: CC(=O)Nc1ccc(-c2noc(-c3ccc(O)cc3)n2)cc1

MIC (Staphylococcus aureus [1]): 8 µg/mL (≈ 22.6 µM)
SMILES: CC(C)(C)OC(=O)Nc1ccc(-c2noc(-c3ccc(O)cc3)n2)cc1

MIC (Staphylococcus aureus [1]): ≥ 128 µg/mL
SMILES: O=S(=O)(c1ccccc1)c1ccc(-c2noc(-c3ccc(O)cc3)n2)cc1
